From US10117819B2, “Composition for hair frizz reduction” (The Procter & Gamble Company, priority 2014, dated 2018)

Test: Penetration amount of moisture control material inside hair (extraction, HPLC)
Details: compared to corresponding composition without 2-hydroxyethyl urea (XXVII and XXVIII)
Experimental: Each hair tress is extracted 3 times with 0.1% TFA (Trifluoroacetic acid) in methanol and the individual extracts are analyzed separately using HPLC method.

O=C(O)c1ccccc1O [Salicylic acid]
Increase of penetration inside hair with 2% of 2-hydroxyethyl urea: 14%
